How the values were obtained:
C57BL/6J mice = test: Ethanol-induced loss of righting reflex (LORR); type: in vivo
Description: Eight-week-old male and female C57BL/6J mice (Jackson’s Laboratories, Bar Harbor, ME, USA) were housed 4 mice to a cage (separated by sex) and maintained on 12-h light, 12-h dark cycles (lights on at 0700 h) in the animal facility at the Department of Animal Sciences, Rutgers University. Following 1-week acclimation, animals were given ad libitum access to water and a polyphenol-free diet (PFD; 3.82 kcal/g, 10% fat, 20% protein, 70% carbohydrate; D12450H; Research Diets, Inc., New Brunswick, NJ, USA) for at least 10 days. For PK studies, after an overnight fast, mice were administered 50 mg/kg DHM (dissolved in 0.9% saline with 10% DMSO) by either IP injection or oral gavage. […] Duration of LORR was determined by ability to return upright 3 times within 30 s. To determine whether ethanol-induced tolerance developed, one week (Week 1; Baseline) prior to the 6-week repeated DHM dosing study all mice were oral dose with ethanol (5 g/kg) without any IP injection and LORR was measured. […]
Pharmacokinetic parameters were calculated using noncompartmental analysis. Elimination half-life (T1/2) was calculated with R software from the linear regression of the terminal phase of the log serum concentration-time curve. The AUC0→24 was calculated with OriginLab software by trapezoidal analysis of the serum concentration-time plot. Cmax and Tmax were determined directly from observed data. Data are expressed as mean ± SEM. Statistical significance between AUC0→24 among test groups was calculated with an independent t-test (GraphPad software, San Diego, CA, USA). Time to LORR was analyzed by repeated measured ANOVA. Tolerance was determined by mean split in LORR response and confirmed with paired t-test (Week 1 vs. Week 8). Statistical significance of serum concentrations for individual time points was calculated using a two-way analysis of variance (ANOVA) analysis. […] Statistical significance of electrophysiology results compound GABAergic modulation was determined using a paired t-test (Vehicle control vs. Compound, GraphPad software, San Diego CA, USA). p < 0.05 was considered significant.

[1] = Quantification of DHM in brain samples; type: in vivo, mice; conditions: for Brain Concentration 15 min post DHM: mean ± SEM
Description: Eight-week-old male and female C57BL/6J mice (Jackson’s Laboratories, Bar Harbor, ME, USA) were housed 4 mice to a cage (separated by sex) and maintained on 12-h light, 12-h dark cycles (lights on at 0700 h) in the animal facility at the Department of Animal Sciences, Rutgers University. Following 1-week acclimation, animals were given ad libitum access to water and a polyphenol-free diet (PFD; 3.82 kcal/g, 10% fat, 20% protein, 70% carbohydrate; D12450H; Research Diets, Inc., New Brunswick, NJ, USA) for at least 10 days. For PK studies, after an overnight fast, mice were administered 50 mg/kg DHM (dissolved in 0.9% saline with 10% DMSO) by either IP injection or oral gavage. Oral gavage was performed using single-use, sterile plastic feeding tubes for mice (20 ga × 30 mm; cat# FTP-20-30, Instech Laboratories, (Plymouth Meeting, PA, USA). Mice were deeply anesthetized with 5% isoflurane mixed with oxygen, and blood was collected by cardiac puncture. Following cardiac puncture, animals were exsanguinated and transcardial perfusion with 0.9% saline was performed to ensure blood removal from the brain tissue. Blood and brain samples were collected from a total of 85 mice at 0.25, 0.75, 1.5, 3, 6, 12, 24 h (3–4 mice for each sex and timepoint). Tissues were immediately homogenized with 0.2% formic acid at 1:2 (w/v), and frozen at −80 °C until analysis. Blood was centrifuged at 3000× g for 10 min at 4 °C to isolate serum. For efficacy studies, mice (n = 8/sex) were fasted at 5 h prior to Ethanol gavage 5 g/kg (37% Ethanol in water). DHM 50 mg/kg IP (dissolved in 0.9% saline with 10% DMSO) was administered at 0, 15, 45, 90 and 180 min prior to Ethanol oral gavage. Each mouse was tested at each time point 7 days apart over 6-week period. At the time of Ethanol gavage, mice were placed in oversized conical holders (L: 152 mm X W: 37 mm) and observed for ability to return upright upon being placed in a supine position. Duration of LORR was determined by ability to return upright 3 times within 30 s. To determine whether ethanol-induced tolerance developed, one week (Week 1; Baseline) prior to the 6-week repeated DHM dosing study all mice were oral dose with ethanol (5 g/kg) without any IP injection and LORR was measured. Mice were then re-tested in a similar fashion with oral ethanol 1 week after the DHM 6-week period (Week 8; Post). […] All animal studies were approved by the Institutional Animal Care and Use Committee of Rutgers University (Bello; PROTO999900014, OLAW #A3262-01, 15 March 2017) and complied with NIH Guide for the Care and Use of Laboratory Animals.
Whole brain samples were homogenized in FA. All brain homogenates were stored at −80 °C and conditioned to room temperature prior to analysis. An aliquot of 300 µL of brain homogenate was added to 50 µL IS solution (417 ng/mL in EtOAc) and 500 µL of EtOAc in an Eppendorf tube. Samples were then vortexed for 30 s and sonicated for 1 min. Samples were centrifuged for 2 min at 3000× g and the supernatant transferred to a glass vial with 10 µL of 2% ascorbic acid in methanol. Samples were extracted two more times with 500 µL EtOAc and the supernatant transferred to the corresponding vial and dried under vacuum. Each sample was then reconstituted with 100 µL of 45% MeOH with 0.1% FA, centrifuged, and aliquoted into an HPLC vial for analysis.
An Agilent 1290 Infinity II UPLC system interfaced with an Agilent 6470 Triple Quadrupole Mass Spectrometer with an electrospray ionization source (Agilent Technology, Palo Alto, CA, USA) was used for sample analysis. An Waters Acquity UPLC BEH C8 column (2.1 × 150 mm, 1.7 μm) (Milford, MA, USA) column with a VanGuard Acquity C8 guard column (2.1 × 5 mm, 1.7 μm) (Milford, MA, USA) was used for chromatographic separation. The binary mobile phases consisted of water with 0.1% FA (phase A) and acetonitrile (ACN) with 0.1% formic acid (phase B). The flow rate was set at 0.450 mL/min. […]

[2] = system: P-glycoprotein (Pgp) efflux transporters; parameters: method as in PMID 33810134, PMID 25985195; conditions: cited from earlier work
[3] = parameters: method as in PMID 27951743; conditions: rats; cited from earlier work
[4] = parameters: method as in PMID 28114854; conditions: cited from earlier work
[5] = parameters: method as in PMID 28534405; conditions: Sprague Dawley rats, 100 mg/kg PO; cited from earlier work
[6] = parameters: method as in PMID 29969512; conditions: cited from earlier work

Question: Which “ethanol-induced loss of righting reflex” value (C57BL/6J mice; C57BL/6J mice, DHM 50 mg/kg IP 0 or 15 min prior to ethanol PO 5 g/kg) does the source give for O=C1c2c(O)cc(O)cc2O[C@H](c2cc(O)c(O)c(O)c2)[C@H]1O [DHM, Dihydromyricetin] here?
Answer: significantly reduced

Question: And the “LORR compared with vehicle treated mice” value (C57BL/6J mice; female mice, DHM 50 mg/kg IP at time 0 and 45 min before oral ethanol 5 g/kg, p < 0.05)?
Answer: reducing LORR

Question: What about the LORR (C57BL/6J mice; responsive mice (5 males/3 females), DHM 50 mg/kg IP at time 0 and 15 min prior to ethanol PO, p < 0.05) of the same compound?
Answer: demonstrated a reduction in LORR

Question: And the “Concentration in brain tissue” value ([1]; 15 min post DHM 50 mg/kg PO or IP, male and female mice, range over groups)?
Answer: 50.9 to 861.5 nmol/g

Question: What about the “Detection of DHM in brain samples” value ([1]; 45 min or longer post PO or IP administration of DHM 50 mg/kg) of the same compound?
Answer: not detected

Question: And the “Brain Concentration 15 min post DHM” value ([1]; female mice, DHM 50 mg/kg IP)?
Answer: 864 ± 220 nmol/g

Question: And the “Brain Concentration 15 min post DHM” value ([1]; female mice, DHM 50 mg/kg PO)?
Answer: 50.9 ± 2.6 nmol/g

Question: And the “Brain Concentration 15 min post DHM” value ([1]; male mice, DHM 50 mg/kg IP)?
Answer: 672 ± 85 nmol/g

Question: What about the “Brain Concentration 15 min post DHM” value ([1]; male mice, DHM 50 mg/kg PO) of the same compound?
Answer: 423 ± 66 nmol/g

Question: And the Pgp interaction [2]?
Answer: Pgp substate and inhibitor

Question: And the oral absolute bioavailability [3]?
Answer: 4.02%

Question: And the “stability in acidic environments” value ([4]; acidic environments, similar to upper GI tract)?
Answer: stable

Question: What about the “stability in solutions with pH > 6” value ([4]; pH > 6) of the same compound?
Answer: unstable

Question: What about the “time DHM detected in brain tissue post administration” value [5] of the same compound?
Answer: up to 12 h

Question: And the cellular permeability [6]?
Answer: 1.84 ×10⁻⁶ cm/s

Source: PMC8307506, “Identification of Dihydromyricetin and Metabolites in Serum and Brain Associated with Acute Anti-Ethanol Intoxicating Effects in Mice” (International Journal of Molecular Sciences, 2021)
